These results are taken from PubChem BioAssay AID602326 (NMMLSC, 2012).

Active and inactive are the calls of the source. No rule for the calls is given here.

The test has as its target Lethal factor (Bacillus anthracis) (UniProt P15917). Put plainly: Lethal factor protease inhibitors, microsphere cleavage assay, confirmatory dose response, cherry picks (AID 602326). Particulars: multiplex microsphere protease substrate cleavage assay.

One may read the EC50 as the concentration giving half of the maximal effect.

Sequence of Lethal factor (Bacillus anthracis) (P15917 whole entry, looked up): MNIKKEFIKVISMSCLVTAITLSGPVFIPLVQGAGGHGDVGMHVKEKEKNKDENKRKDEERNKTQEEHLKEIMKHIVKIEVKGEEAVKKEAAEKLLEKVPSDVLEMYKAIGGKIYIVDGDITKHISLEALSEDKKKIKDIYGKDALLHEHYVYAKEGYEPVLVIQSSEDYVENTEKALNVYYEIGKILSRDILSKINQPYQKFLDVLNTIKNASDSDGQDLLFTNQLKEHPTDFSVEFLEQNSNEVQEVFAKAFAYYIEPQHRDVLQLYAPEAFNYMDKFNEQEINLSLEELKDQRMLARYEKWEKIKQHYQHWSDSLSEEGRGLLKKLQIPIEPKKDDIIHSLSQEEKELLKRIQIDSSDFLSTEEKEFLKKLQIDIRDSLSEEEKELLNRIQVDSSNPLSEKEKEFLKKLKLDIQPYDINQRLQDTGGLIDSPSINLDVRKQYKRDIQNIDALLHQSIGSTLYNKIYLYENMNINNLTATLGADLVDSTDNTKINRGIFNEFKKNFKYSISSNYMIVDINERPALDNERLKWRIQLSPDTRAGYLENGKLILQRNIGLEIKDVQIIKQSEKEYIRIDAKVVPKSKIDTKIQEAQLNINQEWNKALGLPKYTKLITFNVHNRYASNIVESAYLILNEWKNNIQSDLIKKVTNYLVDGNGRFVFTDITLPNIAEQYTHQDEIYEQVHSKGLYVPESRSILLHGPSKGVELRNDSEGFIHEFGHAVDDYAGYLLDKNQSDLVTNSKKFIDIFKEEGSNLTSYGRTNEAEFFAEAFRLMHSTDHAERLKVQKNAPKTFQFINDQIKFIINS

Take `Oc1[nH]c(N=C2N=c3ccccc3=N2)c2ccccc12`: the EC50 is > 20 µM (inactive). The result for `O=c1c(/C=C(\O)c2ccccc2)nc2ccccc2n1-c1ccccc1` reads > 20 µM (inactive).
